The test system of assay [1] is T47D human breast cancer cells. Put plainly: Alkaline phosphatase assay in human breast cancer cell line T47D. The class given is cell-based. As for the experimental part: Alkaline Phosphatase Assay in Human Breast Cancer Cell Line T47D
T47D human breast cancer cells were grown in RPMI medium without phenol red (Invitrogen) containing 10% (v/v) heat-inactivated fetal bovine serum (FBS; Hyclone), 1% (v/v) penicillin-streptomycin (Invitrogen), 1% (w/v) glutamine (Invitrogen), and […] insulin (Sigma). Incubation conditions were 37° C. in a humidified 5% (v/v) carbon dioxide environment.
The cells were plated in 96-well tissue culture plates at 10,000 cells per well in assay medium [RPMI medium without phenol red (Invitrogen) containing 5% (v/v) charcoal-treated FBS (Hyclone) and 1% (v/v) penicillin-streptomycin (Invitrogen)]. Two days later, the medium was decanted and test compound or control were added at a final concentration of 0.1% (v/v) dimethyl sulfoxide in fresh assay medium. Twenty-four hours later, an alkaline phosphatase assay was performed using a SEAP kit (BD Biosciences Clontech, Palo Alto, Calif.). Briefly, the medium was decanted and the cells were fixed for 30 minutes at room temperature with 5% (v/v) formalin (Sigma). The cells were washed once with room temperature Hank's buffered saline solution (Invitrogen). Equal volumes (0.05 mL) of 1× Dilution Buffer, Assay Buffer and 1:20 substrate/enhancer mixture were then added. After 1 hour incubation at room temperature in the dark, the lysate was transferred to a white 96-well plate (Dynex) and luminescence was read using a LuminoSkan Ascent (Thermo Electron, Woburn, Mass.).

For assay [2], the system named is A549 Human lung carcinoma cells. Briefly: Transient transfection and Steady Glo luciferase assay in A549 cells with dexamethasone challenge. The class given is cell-based. As for the experimental part:
Transient Transfection and Steady Glo Luciferase Assay
A549 Human lung carcinoma cells were grown in F-12K Nutrient Mixture containing 10% (v/v) fetal bovine serum (FBS; Invitrogen), 2 mM glutamine and 0.15% […] (Invitrogen)
A549 cells were split 1 to 3 in 175 cm tissue culture flask. The cells were incubated at 37° C. in CO2 incubator until the cells were 95% confluent (typically 24-30 hours).
The following solutions were prepared in sterile tubes: (a) Solution A: 1.5 μg/ml of DNA in 8.5 ml OPTI-MEM I Reduced Serum Medium. (GIBCO cat# 31985) and (b) Solution B: 6 μl/ml of DMRIE-C Reagent into […] OPTI-MEM I. The two solutions were combined and mixed gently, then incubated at room temperature for 40 minutes.
The A549 cells prepared above were washed with […] of OPTI-MEM I. The medium was removed and 17 ml of the lipid-DNA complex solution was overlayed onto cells. The cells ere then incubated for 16 h at 37° C. in CO2 incubator. The DNA-containing medium was removed and 30 ml of growth medium was added. (5% Charcoal treated FBS) After 5-6 h, the cells were seeded in a 96 well plate and the cells incubated overnight at 37° C. in CO2 incubator.
To each well was then added 5 μl of test compounds and the cells incubated at 37° C. for 10 min. 5 μL of dexamathasone (CAS [50-02-2]), a glucocorticoid agonist, solution was then added to each well for challenger and the cells incubated at 37° C. in CO2 incubator for 24 h. 100 μl of Luc-assay buffer was then added into each cell well and the cells incubated for 30 min at room temperature. A 150 μL sample from each well was then transferred into a DYNEX Microlitel plate and read on Top-counter.

The mark [3] stands for this setting: T47D, 24 h, read-out: T47D IC50 (nM).
Setting [4] is: A549, 24 h, read-out: A549 IC50 (nM).
[5] abbreviates: T47D cells, alkaline phosphatase readout, 24 h with test compound, read-out: T47D IC50.
The mark [6] stands for this setting: transfected A549 cells, luciferase readout, challenged with dexamethasone (glucocorticoid agonist), 24 h, read-out: A549 IC50.

Data on 30 molecules can be found in patent US7671045B2, “17-phosphorous steroid derivatives useful as progesterone receptor modulators” (Janssen Pharmaceutica N.V., priority 2006, dated 2010).

Where two headings read alike, the source gives them in different places.

By IC50 is commonly meant the concentration at which inhibition is half-maximal. Regarding `C=C1CCO[C@]12CC[C@H]1[C@@H]3CCC4=CC(=O)CCC4=C3[C@@H](c3ccc(P(=O)(OCC)OCC)cc3)C[C@@]12C` [Compound 3], the results for the 50% inhibitory concentration (IC50) in assay [1] (setting [3]) and in assay [2] (setting [4]) were 12 nM and 238 nM, respectively. For `CCOP(=O)(C#C[C@]1(O)CC[C@H]2[C@@H]3CCC4=CC(=O)CCC4=C3[C@@H](c3ccc(SC)cc3)C[C@@]21C)OCC` [Compound 107], in that order: 4.75 nM and 454 nM. Take `C=C1CCO[C@]12CC[C@H]1[C@@H]3CCC4=CC(=O)CCC4=C3[C@@H](c3ccc(P(=O)(c4ccc(Cl)cc4)c4ccc(Cl)cc4)cc3)C[C@@]12C` [Compound 39, 19,24-Dinorchola-4,9,20-trien-3-one, 17,23-epoxy-11-[4-[Bis-(4-chloro-phenyl)-phosphinoyl]-phenyl]-, (11β,17α)-(9Cl)]: the IC50 in assay [1] (setting [5]) came out at 20 nM; in assay [2] (setting [6]), 143 nM.

With `C=C1CCO[C@]12CC[C@H]1[C@@H]3CCC4=CC(=O)CCC4=C3[C@@H](c3ccc(P(=O)(c4ccccc4)c4ccccc4)cc3)C[C@@]12C` [Compound 36, 19,24-Dinorchola-4,9,20-trien-3-one, 17,23-epoxy-11-[4-(diphenyl-phosphinoyl)-phenyl]-, (11β,17α)-(9Cl)], the results for the 50% inhibitory concentration (IC50) in assay [1] (setting [5]) and in assay [2] (setting [6]) were 45 nM and 163 nM, respectively.

As for `C=CC[C@]1(O)CC[C@H]2[C@@H]3CCC4=CC(=O)CCC4=C3[C@@H](c3ccc(P(C)(C)=O)cc3)C[C@@]21C` [Compound 9], the values for the IC50 in assay [1] (setting [5]) and in assay [2] (setting [6]) were 205 nM and above 1000 nM, respectively. On the same counts, the results for `C[C@]12C[C@H](c3ccc(P(=O)(OCc4ccccc4)OCc4ccccc4)cc3)C3=C4CCC(=O)C=C4CC[C@H]3[C@@H]1CCC2=O` [Compound 35] are 980 nM and 948 nM.

For the molecule `COP(=O)(OC)c1ccc([C@H]2C[C@]3(C)C(=O)CC[C@H]3[C@@H]3CCC4=CC(=O)CCC4=C32)cc1` [Compound 15], the IC50 in assay [1] (setting [3]) is 8.8 nM; in assay [2] (setting [4]), above 3000 nM.

For `C[C@]12C[C@H](c3ccc(P(C)(C)=O)cc3)C3=C4CCC(=O)C=C4CC[C@H]3[C@@H]1CC[C@@]2(O)CC#N` [Compound 6], the IC50 was above 1000 nM in assay [1] (setting [5]) and above 3000 nM in assay [2] (setting [6]).

On to `C=CC[C@]1(O)CC[C@H]2[C@@H]3CCC4=CC(=O)CCC4=C3[C@@H](c3ccc(P(=O)(c4ccccc4)c4ccccc4)cc3)C[C@@]21C` [Compound 24], for which the 50% inhibitory concentration (IC50) in assay [1] (setting [5]) was found to be 762 nM; in assay [2] (setting [6]) it was 48.2 nM.

As for `C[C@]12C[C@H](c3ccc(P(C)(C)=O)cc3)C3=C4CCC(=O)C=C4CC[C@H]3[C@@H]1CCC2=O` [Compound 2], the figures for the 50% inhibitory concentration (IC50) in assay [1] (setting [5]) and in assay [2] (setting [6]) were above 1000 nM and above 710 nM, respectively.

With `C=C1CCO[C@]12CC[C@H]1[C@@H]3CCC4=CC(=O)CCC4=C3[C@@H](c3ccc(P(=O)(OCC(F)(F)F)OCC(F)(F)F)cc3)C[C@@]12C` [Compound 38, 19,24-Dinorchola-4,9,20-trien-3-one, 17,23-epoxy-11-[4-[Bis-(2,2,2-trifluoro-ethoxy)-phosphoryl]-phenyl]-, (11β,17α)-(9Cl)], the IC50 in assay [1] (setting [5]) stood at 29.5 nM; in assay [2] (setting [6]), 141 nM. Take `C[C@]12C[C@H](c3ccc(P(C)(C)=O)cc3)C3=C4CCC(=O)C=C4CC[C@H]3[C@@H]1CC[C@@]2(O)C(F)(F)C(F)(F)F` [Compound 7]: the half-maximal inhibitory concentration (IC50) in assay [1] (setting [5]) came to 8.4 nM; in assay [2] (setting [6]), 624 nM. On the same counts, the results for `C/C=C/C[C@]1(O)CC[C@H]2[C@@H]3CCC4=CC(=O)CCC4=C3[C@@H](c3ccc(P(=O)(c4ccccc4)c4ccccc4)cc3)C[C@@]21C` [Compound 28] are 660 nM and 129 nM. With `CCOP(C)(=O)c1ccc([C@H]2C[C@]3(C)C(=O)CC[C@H]3[C@@H]3CCC4=CC(=O)CCC4=C32)cc1` (some centres unmarked) [Compound 21], the IC50 in assay [2] (setting [4]) was above 3000 nM. For the molecule `C=CC[C@]1(O)CC[C@H]2[C@@H]3CCC4=CC(=O)CCC4=C3[C@@H](c3ccc(P(=O)(OCC)OCC)cc3)C[C@@]21C` [Compound 13], the IC50 in assay [1] (setting [3]) worked out at 170 nM; in assay [2] (setting [4]) it was 30.2 nM. As for `C=C1CCO[C@]12CC[C@H]1[C@@H]3CCC4=CC(=O)CCC4=C3[C@@H](c3ccc(P(C)(C)=O)cc3)C[C@@]12C` [Compound 4], the IC50 in assay [1] (setting [5]) was determined as 3 nM; in assay [2] (setting [6]), 66.2 nM.

Consider `COP(=O)(OC)c1ccc([C@H]2C[C@@]3(C)[C@@H](CC[C@@]3(O)C#Cc3ccccc3)[C@@H]3CCC4=CC(=O)CCC4=C32)cc1` [Compound 31], for which the concentration for half-maximal inhibition (IC50) was 7.47 nM in assay [1] (setting [3]) and 130 nM in assay [2] (setting [4]). On the same counts, the results for `C=C1CCO[C@]12CC[C@H]1[C@@H]3CCC4=CC(=O)CCC4=C3[C@@H](c3ccc(P(=O)(OC)OC)cc3)C[C@@]12C` [Compound 16] are 8.3 nM and 230 nM. For `C/C=C/C[C@]1(O)CC[C@H]2[C@@H]3CCC4=CC(=O)CCC4=C3[C@@H](c3ccc(P(=O)(OCC)OCC)cc3)C[C@@]21C` [Compound 29], in that order: 160 nM and 225 nM.

For the molecule `C=C1CCO[C@]12CC[C@H]1[C@@H]3CCC4=CC(=O)CCC4=C3[C@@H](c3ccc(P4(=O)OCC(C)(C)CO4)cc3)C[C@@]12C` [Compound 23, 19,24-Dinorchola-4,9,20-trien-3-one, 17,23-epoxy-11-[4-(5,5-Dimethyl-2-oxo-2λ^5-[1,3,2]dioxaphosphinan-2-yl)-phenyl]-, (11β,17α)-(9Cl)], the results for the IC50 in assay [1] (setting [5]) and in assay [2] (setting [6]) were 28.7 nM and 64.3 nM, respectively. Take `CCOP(=O)(OCC)c1ccc([C@H]2C[C@@]3(C)[C@@H](CC[C@@]3(O)C(F)(F)C(F)(F)F)[C@@H]3CCC4=CC(=O)CCC4=C32)cc1` [Compound 8]: the IC50 worked out at 170 nM in assay [1] (setting [3]) and 168 nM in assay [2] (setting [4]). On the same counts, the results for `CCOP(=O)(C#C[C@]1(O)CC[C@H]2[C@@H]3CCC4=CC(=O)CCC4=C3[C@@H](c3ccc(OC)cc3)C[C@@]21C)OCC` [Compound 108] are 6.9 nM and 72.2 nM. Turning to `CCOP(=O)(OCC)c1ccc([C@H]2C[C@]3(C)C(=O)CC[C@H]3[C@@H]3CCC4=CC(=O)CCC4=C32)cc1` [Compound 1], the results for the IC50 in assay [1] (setting [3]) and in assay [2] (setting [4]) were above 1000 nM and 254 nM, respectively. With `C=C1CCO[C@]12CC[C@H]1[C@@H]3CCC4=CC(=O)CCC4=C3[C@@H](c3ccc(P(=O)(O)OC)cc3)C[C@@]12C` [Compound 17], the IC50 is above 1000 nM in assay [1] (setting [3]) and above 3000 nM in assay [2] (setting [4]).

On to `C[C@]12C[C@H](c3ccc(P(=O)(Oc4ccccc4)Oc4ccccc4)cc3)C3=C4CCC(=O)C=C4CC[C@H]3[C@@H]1CCC2=O` [Compound 33], for which the 50% inhibitory concentration (IC50) in assay [1] (setting [5]) was above 1000 nM; in assay [2] (setting [6]), 217 nM. As to `CC#C[C@]1(O)CC[C@H]2[C@@H]3CCC4=CC(=O)CCC4=C3[C@@H](c3ccc(P(=O)(c4ccccc4)c4ccccc4)cc3)C[C@@]21C` [Compound 27], the IC50 in assay [1] (setting [5]) turned out to be 381 nM; in assay [2] (setting [6]) it was 16.6 nM. For `C=C1CCO[C@]12CC[C@H]1[C@@H]3CCC4=CC(=O)CCC4=C3[C@@H](c3ccc(P(C)(=O)O)cc3)C[C@@]12C` [Compound 22, 19,24-Dinorchola-4,9,20-trien-3-one, 1723-epoxy-11-[4-(hydroxy-methyl-phosphinoyl)phenyl]-(11β,17α)-(9Cl)], in that order: above 1000 nM and above 3000 nM. Consider `C[C@]12C[C@H](c3ccc(P(=O)(OCC(F)(F)F)OCC(F)(F)F)cc3)C3=C4CCC(=O)C=C4CC[C@H]3[C@@H]1CCC2=O` [Compound 32], for which the IC50 is above 1000 nM in assay [1] (setting [3]) and 217 nM in assay [2] (setting [4]). With `C=C(C)[C@]1(O)CC[C@H]2[C@@H]3CCC4=CC(=O)CCC4=C3[C@@H](c3ccc(P(C)(C)=O)cc3)C[C@@]21C` [Compound 10], the figures for the IC50 in assay [1] (setting [5]) and in assay [2] (setting [6]) were 18.3 nM and above 3000 nM, respectively. For `CN(C)c1ccc([C@H]2C[C@@]3(C)[C@@H](CC[C@@]3(O)C#CP(=O)(c3ccccc3)c3ccccc3)[C@@H]3CCC4=CC(=O)CCC4=C32)cc1` [Compound 103], in that order: 1.57 nM and 41.6 nM.
